The values that follow come from PubChem BioAssay AID743267 (Broad Institute, 2014).

The structures appear in SMILES notation.

What is called AC50 is the midpoint of the concentration-response curve, whichever way the signal moves. A low value points to activity at low concentration.

This assay concerns human bronchial epithelial cells, CFTR corrector, plate reader. The experiment in a line: rescue of ΔF508 CFTR function, airway epithelium – human bronchial epithelial cells, plate reader, cherry-pick, two tests, dose response (AID 743267).
[1] abbreviates: measured here: test 2 replicate run.
Where [2] appears, read: measured here: test 1 replicate run.

Consider `CCCOc1cc(N(CC)CC)ccc1/C=C(/C#N)c1nc2ccc(C)cc2[nH]1`, for which the half-maximal activity concentration (AC50) under setting [1] was 6.15 µM.

Regarding `C=C1C(=O)O[C@@H]2C[C@@H](C)[C@@H]3C=CC(=O)[C@@]3(C)[C@@H](O)[C@H]12`, the half-maximal activity concentration (AC50) under setting [1] worked out at 0.989 µM.

Molecule `COc1ccccc1/C=N/NC(=O)c1cc2c(OC)c(OC)ccc2[nH]1` had an AC50 under setting [1] of 0.802 µM.

Regarding `Cc1nc(/N=C(\N)NC(=O)NC2CCCCC2)nc2ccccc12`, the AC50 under setting [1] worked out at 2.76 µM.

Take `CC(=O)Nc1ccc(NC(=O)COc2cccc3c2OC(C)(C)C3)cc1`: the AC50 under setting [1] is over 50 µM.

Turning to `COc1ccc(NS(=O)(=O)c2cc(NC(=O)Cc3c(F)cccc3Cl)ccc2OC)cc1`, the AC50 under setting [1] turned out to be 0.827 µM.

Consider `N#CC(C#N)=C1C=C2C=C(N3CCOCC3)CCC2CC1` (stereo unspecified), for which the AC50 under setting [1] was determined as 28.2 µM.

As for `N#CC1=C(N)Oc2cc(N)ccc2C1c1cccc(F)c1` (stereo unspecified), the AC50 under setting [1] stood at 3.15 µM.

The molecule `O=C(CN(Cc1ccco1)Cc1ccco1)Nc1cc(S(=O)(=O)N2CCCCC2)ccc1Cl` gave a concentration at half-maximal activity (AC50) under setting [1] of 17.2 µM.

Under setting [1], `CC(=O)N1CCc2c(sc(NC(=O)c3ccc4c(c3)OCCO4)c2C#N)C1` displayed an AC50 of 7.74 µM.

The molecule `CN1C(=O)c2cccc3c(N)ccc(c23)C1=O` yielded a concentration at half-maximal activity (AC50) under setting [1] of 18.3 µM.

Consider `Cc1nc(C)c(C(=O)NN=Cc2ccc(N(CCCl)CCCl)cc2)s1`, for which, under setting [1], the half-maximal activity concentration (AC50) is over 50 µM.

With `Nc1[nH]nc2ncc3cc4ccccc4nc3c12`, under setting [1], the AC50 turned out to be 17.7 µM.

As for `CN1C(=O)c2cc(NC(=O)c3ccc(Cl)cc3)ccc2OC[C@@H]2O[C@H](CC(=O)NCc3cccc(F)c3)CC[C@H]21`, the half-maximal activity concentration (AC50) under setting [2] worked out at 4.62 µM.

For the molecule `Brc1ccc2c(c1)C(C1=NCCN1)c1ccccc1CS2` (stereo unspecified), under setting [1], the half-maximal activity concentration (AC50) came out at 16 µM.

`COc1ccc(OC)c(Nc2cc(C)nc3ccc(C)cc23)c1`: the AC50 under setting [1] turned out to be 10.7 µM.

Consider `CCS(=O)(=O)N1CC(=O)N2[C@H](CO)[C@@H](c3ccc(C#CCC(C)C)cc3)[C@@H]2C1`, for which the AC50 under setting [2] turned out to be 0.0676 µM.

Under setting [1], `O=C(N/N=C/c1c(O)ccc2ccccc12)C(=O)N1CCCC1` yielded an AC50 of 12.6 µM.

`CCOC(=O)/C(=C/C=C1\Sc2cc(C)c(C)cc2N1CC)C(C)=O` had a concentration at half-maximal activity (AC50) under setting [1] of 13.6 µM.

Under setting [1], `CCOC(=O)c1c(C)[nH]c(C(=O)N/N=C\c2ccccc2O)c1C` displayed an AC50 of 3.36 µM.

The molecule `COc1ccc(/C=N/NC(=O)c2cccnc2)cc1CSc1ccccn1` came in with a concentration at half-maximal activity (AC50) under setting [1] of 28.2 µM.

Under setting [1], `OC[C@@H]1CN(Cc2ccc(-c3ccccc3)cc2)C[C@H](n2cnc3c(NC4CC4)ncnc32)O1` registered a concentration at half-maximal activity (AC50) of over 50 µM.

With `COc1cccc2c1C(=O)c1c(O)c3c(c(O)c1C2=O)C[C@@](O)(C(C)=O)C[C@@H]3O[C@H]1C[C@H](N)[C@H](O)[C@H](C)O1`, the AC50 under setting [1] stood at 7.44 µM.

Under setting [1], `Cn1cccc1/C=C1\SC(=Nc2ccccc2)NC1=O` gave a half-maximal activity concentration (AC50) of 2.89 µM.

Molecule `NC1(C(=O)O)CC1` came in with an AC50 under setting [1] of over 50 µM.

Under setting [1], `O=C(OCc1ccc(Br)cc1)c1cc([N+](=O)[O-])ccc1N1CCOCC1` gave an AC50 of 0.662 µM.

With `COc1cccc(C2c3cc4c(cc3OC(NNC(N)=O)C2C)OCO4)c1O` (stereo unspecified), the half-maximal activity concentration (AC50) under setting [1] was 3.18 µM.

The molecule `Cc1cccc(N(C)C(=O)c2cc3c(=O)[nH]c4ccc(C)cc4c3s2)c1` registered a concentration at half-maximal activity (AC50) under setting [1] of 4.72 µM.

As for `COc1cc(C(=O)Nc2ccc3c(c2)CCN3C(C)=O)cc(OC)c1OC`, the concentration at half-maximal activity (AC50) under setting [1] was 3.56 µM.

On to `COC1C(C)OC(OC2CC(C)(O)Cc3cc4c(c(O)c32)C(=O)c2c(O)cc3c(c2C4=O)OC2OC3(C)C(O)C(N(C)C)C2O)C(OC)C1(C)OC` (stereo unspecified), for which the AC50 under setting [1] is 14.3 µM.

Regarding `CCN(CC)c1ccc(/C=N/NC(=O)c2ccco2)c(O)c1`, under setting [1], the half-maximal activity concentration (AC50) came to 2.3 µM.

For the molecule `Cc1cc(Cl)cc(C)c1OCCn1ccnc1`, the concentration at half-maximal activity (AC50) under setting [1] was 4.68 µM.

As to `COc1ccc(S(=O)(=O)N2CCN(CCOc3ccccc3Cl)CC2)cc1OC`, the AC50 under setting [1] was determined as 38.7 µM.

As for `COc1ccccc1S(=O)(=O)N1CC[C@@H]2[C@@H](CO)N(C)c3ccc(-c4ccc(F)cc4)cc3[C@@H]21`, the AC50 under setting [2] is 15 µM.

The molecule `Clc1ccc(CSc2nncn2-c2ccc3c(c2)OCCO3)cc1` yielded an AC50 under setting [1] of 9.62 µM.

`CCN(CC)CCC(=O)Nc1cccc2c1C(=O)c1ccccc1C2=O` gave a half-maximal activity concentration (AC50) under setting [1] of 2.98 µM.

The molecule `CN(C[C@H](Cc1ccccc1)N(C[C@H](Cc1ccccc1)N(CCC(C)(C)C)N=O)N=O)N=O` came in with an AC50 under setting [1] of 47.9 µM.

The molecule `C#C[C@]1(O)CC[C@H]2[C@@H]3CCc4cc(OC)ccc4[C@H]3CC[C@@]21C` returned an AC50 under setting [1] of 2.48 µM.

In turn, `CN(C)S(=O)(=O)c1ccc2c(c1)/C(=C/c1cc3c([nH]1)CCCC3)C(=O)N2` had a half-maximal activity concentration (AC50) under setting [1] of 6.59 µM.

Consider `O=C(NCCCN1CCOCC1)c1sc2cc(Cl)ccc2c1Cl`, for which the half-maximal activity concentration (AC50) under setting [1] was found to be 1.76 µM.

`CCN1CCN(c2cc(C)c3cc(NC(=O)c4ccc(OC)c(OC)c4)ccc3n2)CC1` showed a half-maximal activity concentration (AC50) under setting [1] of 1.61 µM.

Molecule `CN1c2ccc(-c3ccc(C#N)cc3)cc2[C@H]2[C@H](CCN2S(=O)(=O)c2cccc(F)c2)[C@H]1CO` had an AC50 under setting [2] of 0.128 µM.

Under setting [1], `Cc1ccc(S(=O)(=O)N(Cc2cc3ccccc3[nH]c2=O)c2cccc(C)c2)cc1` yielded an AC50 of 8.17 µM.

Take `COc1ccc(OC)c(-c2cnc(OC(C)(C)C)nc2OC(C)(C)C)c1`: the AC50 under setting [1] came to 13.9 µM.

Molecule `CCOC(=O)c1oc2ccc(S(=O)(=O)n3nc(-c4ccccc4)cc3N)cc2c1C` showed a half-maximal activity concentration (AC50) under setting [1] of 6.82 µM.

Regarding `Nc1c2ccccc2nc2ccccc12`, the half-maximal activity concentration (AC50) under setting [1] stood at 2.62 µM.
